Results on 3 compounds are retold here after patent US9829481B2, “Senescence tracers” (Eberhard Karls Universitaet Tuebingen Medizinische Fakultaet, priority 2012, dated 2017).

Common to all, as to format: cell-based
The subject of test [1] is MCF7 cells (breast cancer cell line). The test is described as follows: Lysosome staining with LysoTracker. The note with it: presence vs absence of Doxorubicin. From the text:
(§1) FIG. 3: Graph of staining signals obtained for HCT116 and MCF7 cells stained with LysoTracker® both in the presence and absence of Doxorubicin.

Test [2] has as its system HCT116 cells (colorectal carcinoma cell line). The test is described as follows: Lysosome staining with LysoTracker. The note with it: presence vs absence of Doxorubicin.
From the text: as §1

Test [3] has as its system MCF7 cells (breast cancer cell line). Kind of test: Senescence β-galactosidase staining, light microscopy. Particulars: 250 nM Doxorubicin for 24 hours. How it is done:
FIG. 2: Light microscope pictures of β-gal-stained HCT116 and MCF7 cells with and with out 250 nM Doxorubicin treatment.
To stimulate HCT116 (colorectal carcinoma cell line) cells and MCF7 (breast cancer cell line) cells for senescence β-galactosidase staining, the cells were treated with 250nM Doxorubicin for 24 hours. Doxorubicin interacts with DNA by intercalation and inhibits the progression of the enzyme topoisonerase II.

The test system is the same in test [4]. The test is described as follows: FACS analysis of labelling of senescent (Doxorubicin-treated) cells. The note with it: with vs without 250 nM Doxorubicin, labeled with 40 ng/ml compound, 20 min, 37° C., 5% CO2. How it is done:
(§2) FIG. 1: FACS-analysis data of the compound of Example 5 in HCT116 cells (colorectal carcinoma cell line) and MCF7 cells (breast cancer cell line) with and with out 250 nM Doxorubicin treatment.
(§3) MCF7 cells with (senescence +) and without 250 nM Doxorubicin treatment. The cells were incubated 20 min in 37° C. with 5% CO2.
(§4) To show the capability of the compounds of the invention to mark and visualise senescent cells, HCT116 cells (colorectal carcinoma cell line) and MCF7 cells (breast cancer cell line) were incubated 20 min at 37° C. with 5% CO2 in the presence and absence of Doxorubicin. The cells were then labeled with 40 ng/ml of the compound of Example 5.
(§5) To show the capability of the compounds of the invention to mark and visualise senescent cells, HCT116 cells (colorectal carcinoma cell line) and MCF7 cells (breast cancer cell line) were incubated 20 min in 37° C. with 5% CO2. The cells were then labeled with 40 ng/ml of the compound of Example 2.
On the technique in general: Flow cytometry measures light scatter and fluorescence of single cells or particles in a stream.

Test [5] has as its system HCT116 cells (colorectal carcinoma cell line). The description is as above. Particulars: with vs without 250 nM Doxorubicin, labeled with 40 ng/ml compound, 20 min, 37° C., 5% CO2. As for the experimental part:
as §2, §3, §4, §5

Take `COc1cccc2c1C(=O)c1c(O)c3c(c(O)c1C2=O)C[C@@](O)(C(=O)CO)C[C@@H]3O[C@H]1C[C@H](N)[C@H](O)[C@H](C)O1` [Doxorubicin]: the “lysosome staining signal compared to untreated cells” value in test [1] and in test [2] was “enhanced positive lysosome staining” in each case. In addition, the “β-gal expression (senescence staining)” value in test [3] is “strong expression of β-gal”.

Regarding `CN(C)c1cccc2c(S(=O)(=O)NCCNc3ccnc4cc(Cl)ccc34)cccc12` [Example 2], the “enrichment of the labeled compound in Doxorubicin-treated (senescent) cells (FACS)” value in test [4] and in test [5] was “enhanced enrichment” throughout.

In the case of `CCN(CC)c1ccc2nc3c4cc(OCCCS[C@H]5O[C@@H](C)[C@@H](O)[C@@H](O)[C@@H]5O)ccc4c(=O)cc-3oc2c1` [Example 5], the “enrichment of the labeled compound in Doxorubicin-treated (senescent) cells (FACS)” value in test [4] was “enhanced enrichment”.
